In brackets after ≈: the same amount, converted by molar mass. Non-standard residues stand in square brackets, D forms with d. Residues, ends and D or L forms follow the SMILES beside them. ξ: configuration not given here. *: point of attachment. Cbz = O=C(OCc1ccccc1)*; ξV = CC(C)C(N)C(=O)O
Settings: buffer; pH 7.4; 200.0 µM

Row | SMILES | solubility kinetic [µg/mL]
1 | CC(=O)Nc1ccc(OCC(=O)N2CCc3ccccc3C2)cc1 | > 48.7
2 | COc1ccc(S(=O)(=O)N2CN3CCN(C3)C2)cc1 | > 42.5
3 | Cl.O=C(CCN1CCOCC1)NC12CC3CC(CC(C3)C1)C2 | 48.9
4 | NC(=O)/C(=C/c1cccnc1)NC(=O)c1ccccc1 | > 40.1
5 | O=C(Cc1ccccc1Cl)N1CCN(c2ccccn2)CC1 | > 47.4
6 | CCC(=O)Nc1cc2[nH]c(=O)cc(C)c2cc1C | 33.4 (≈ 137 µM)
7 | O=C(CNS(=O)(=O)c1ccccc1)NCc1ccco1 | > 44.1
8 | CCN(CC(=O)Nc1ccc2c(c1)OCCO2)CC(=O)Nc1ccc(C)c([N+](=O)[O-])c1 | 7 (≈ 16.3 µM)
9 | N#Cc1c(-c2ccccc2)cc(-c2ccc(O)cc2)nc1N | < 0.2
10 | CCn1c(SCc2ccc(F)cc2)nc2c(c1=O)SCC2 | 0.9 (≈ 2.79 µM)
11 | CCc1nc(C(N)=O)c2[nH]c(=O)n(-c3ccc(OC)cc3OC)c2n1 | > 51.5
12 | COc1cccc(NC(=S)NC(=O)Cc2ccccc2)c1 | 16 (≈ 53.3 µM)
13 | CC(NC(=O)CCC(=O)c1ccc(F)cc1)C1CC2CCC1C2 (stereo unspecified) | 12.5 (≈ 39.4 µM)
14 | CC(NC(=O)COc1ccccc1)C(=O)NCc1ccccc1Cl (stereo unspecified) | > 52
15 | O=C(Nc1ccccc1)NC1CCCCNC1=O (stereo unspecified) | > 37.1
16 | CC1CCN(C2CC(=O)N(c3ccc(Br)cc3Br)C2=O)CC1 (stereo unspecified) | 40.4 (≈ 93.9 µM)
17 | O=S(=O)(CC(c1ccccc1)N1CCCCC1)c1ccc(Cl)cc1 (stereo unspecified) | 4.2 (≈ 11.5 µM)
18 | CC(C)CNC(=S)N1CCC(C(=O)c2ccc(F)cc2)CC1 | > 48.4
19 | CC1(C)CC(c2nc(-c3ccc([N+](=O)[O-])cc3)cs2)CCO1 (stereo unspecified) | 19.3 (≈ 60.6 µM)
20 | O=C(NC1CCC(O)CC1)c1cc(Cl)c2c(c1)OCCO2 (stereo unspecified) | 35.6 (≈ 114 µM)
21 | COc1ccc(NC(=O)c2ccco2)cn1 | > 32.7

Row | SMILES | solubility kinetic [µg/mL]
22 | COc1cc(OC)cc(C(=O)NCC(=O)OCC(=O)NC(C)CCc2ccccc2)c1 (stereo unspecified) | > 64.3
23 | CC(C)(C)n1cnc2cc(NC(=O)c3ccco3)ccc21 | 41.1 (≈ 145 µM)
24 | COc1ccc(S(=O)(=O)N(C)CC(=O)N2CCCCCC2)cc1 | > 51.1
25 | O=C(NCCCCc1ccccc1)Nc1ccc(F)cc1 | 2.3 (≈ 8.03 µM)
26 | c1ccc(-c2cccs2)nc1 | 1.9 (≈ 11.8 µM)
27 | COCCn1c(C(C)C)nc2ccccc21 | > 32.7
28 | O=C(CSc1nc2ncccc2[nH]1)Nc1ccc2c(c1)OCO2 | > 49.3
29 | CC(C)NC(=O)CSc1ncccc1-c1nc2ccccc2[nH]1 | 46.9 (≈ 144 µM)
30 | Cc1ccccc1C(=O)c1c[nH]c(C(=O)NCCc2ccccn2)c1 | > 50
31 | Cc1ccc(CC(=O)NCCc2ccc(S(N)(=O)=O)cc2)cc1 | > 49.9
32 | Cc1cccc(NC(=O)Cn2cc(C=O)c3ccccc32)c1 | 0.9 (≈ 3.08 µM)
33 | Cc1snc(SCc2cccc(Cl)c2)c1C#N | < 0.3
34 | Cc1ccc(N2C(=O)CC(C)CC2=O)cc1 | > 32.6
35 | O=C(Nc1cccnc1Cl)c1cccc(F)c1 | 36.1 (≈ 144 µM)
36 | O=C(Nc1ccc(Cl)cc1F)c1cccc2ccccc12 | 1 (≈ 3.34 µM)
37 | COc1ccc(CN2CCc3ccccc3C2)cc1Br | 11.3 (≈ 34 µM)
38 | N#Cc1ccc(C(=O)OCC(=O)NC2CCCC2)cc1 | 39 (≈ 143 µM)
39 | Cc1ccccc1-n1c(-c2ccoc2)nc2ccccc2c1=O | > 45.3
40 | COC(=O)CNC(=O)C(NC(=O)OCc1ccccc1)C(C)C (stereo unspecified) (Cbz-[ξV]-Gly-OMe) | > 48.4
41 | CNC(=O)c1cccc(NC(=O)C(C)c2ccc3cc(OC)ccc3c2)c1 (stereo unspecified) | 9.2 (≈ 25.4 µM)
42 | CN(C)C=Nc1nonc1-c1ccccc1 | 24.4 (≈ 113 µM)

Row | SMILES | solubility kinetic [µg/mL]
43 | Cc1cc(C(C)(C)C)cc(C)c1CCNC(=O)c1ccc[n+]([O-])c1 | > 49
44 | CC1CCN(C(=O)c2cc(-c3ccco3)on2)CC1 | 37.7 (≈ 145 µM)
45 | C#Cc1cccc(NC(=O)Cc2cccs2)c1 | > 36.2
46 | CC1(C)C/C(=N\O)C(C(O)c2cccc([N+](=O)[O-])c2)C(C)(C)N1 (stereo unspecified) | 40.4 (≈ 126 µM)
47 | C=CCn1c(O)c(C(CC)=Nc2cccc(C(=O)O)c2)c(=O)[nH]c1=O | > 51.5
48 | O=c1oc2ccccc2cc1-c1csc(Nc2ccc(O)cc2)n1 | 1.7 (≈ 5.05 µM)
49 | Cc1noc(C(=O)Nc2cccnc2Cl)c1Cl | > 40.8
50 | Cc1noc(C)c1C(=O)N1CCC(C(=O)c2ccccc2)CC1 | 41.8 (≈ 134 µM)
51 | O=c1cc[nH]c2ccc(OC(F)(F)F)cc12 | > 34.4
52 | COc1cccc(NC(=O)C2CCOC2=O)c1 (stereo unspecified) | > 35.3
53 | CC1=C(C(=O)OC(C)C)C(c2ccc3c(c2)OCO3)NC(=O)N1 (stereo unspecified) | 47.3 (≈ 149 µM)
54 | CNC(=S)Nc1ccc([N+](=O)[O-])cc1 | > 31.7
55 | Cc1ccc(NC(=O)CCNC(=O)c2ccco2)cc1F | > 43.5
56 | O=C(Nc1ccc(Cl)cc1)OC1CN2CCC1CC2 (stereo unspecified) | 40.5 (≈ 144 µM)
57 | CC(=O)/C(C=Nc1noc(C)c1Br)=C(\C)O | 37.6 (≈ 131 µM)
58 | CCCCN(C)Cc1c(C)[nH]c2ccccc2c1=O | > 38.8
59 | CC1CC(C)CN(C(=O)C2CC(=O)N(c3ccc(F)cc3)C2)C1 (stereo unspecified) | 34.7 (≈ 109 µM)
60 | CN(Cc1ccccc1)c1c([N+](=O)[O-])c(=O)n(C)c2ccccc12 | 2.7 (≈ 8.35 µM)
61 | CC1CCCC(NC(=O)c2ccncc2)C1C (stereo unspecified) | > 34.8

From PubChem BioAssay AID1996
